Where a name gives a salt, the structure may show the parent alone.
Molecular target: MCH receptor (Homo sapiens, UniProt Q99705)
Experiment: High throughput functional screening FLIPR/FDSS6000 (intracellular Ca2+ evoked by MCH)
Format: cell-based
Settings: FLIPR/FDSS, antagonist activity vs 50 nM MCH; class by percent of control at 10^−7 M or IC50; table after the classification; read-out: class
Method in brief: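 For antagonist testing, compound-treated cells (30 min, 37 °C) were stimulated with 50 nM MCH and intracellular Ca2+ followed by Fluo4 fluorescence on FLIPR/FDSS6000. Receptor was a constitutively active, non-endogenous MCH receptor; dye loading 4 μM Fluo4-AM, 1 h, 37 °C.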

IC50	SMILES
< 50 nM	Cc1cc(N[C@H]2CC[C@@H](NC(=O)c3cccc(O)c3)CC2)nc2ccccc12 [Example 3160, 3-Hydroxy-N-[cis-4-(4-methyl-quinolin-2-ylamino)-cyclohexyl]-benzamide hydrochloride]
50 to 200 nM	Cc1cc(N[C@H]2CC[C@@H](NC(=O)c3cccnc3N)CC2)nc2ccccc12 [Example 3161, 2-Amino-N-[cis-4-(4-methyl-quinolin-2-ylamino)-cyclohexyl]-nicotinamide dihydrochloride]
50 to 200 nM	Cc1cc(N[C@H]2CC[C@@H](NC(=O)c3cccc(F)c3F)CC2)nc2ccccc12 [Example 3162, 2,3-Difluoro-N-[cis-4-(4-methyl-quinolin-2-ylamino)-cyclohexyl]-benzamide hydrochloride]
< 50 nM	Cc1cc(N[C@H]2CC[C@@H](NC(=O)c3ccc(F)cc3F)CC2)nc2ccccc12 [Example 3163, 2,4-Difluoro-N-[cis-4-(4-methyl-quinolin-2-ylamino)-cyclohexyl]-benzamide hydrochloride]
50 to 200 nM	Cc1cc(N[C@H]2CC[C@@H](NC(=O)c3cc(F)ccc3F)CC2)nc2ccccc12 [Example 3164, 2,5-Difluoro-N-[cis-4-(4-methyl-quinolin-2-ylamino)-cyclohexyl]-benzamide hydrochloride]
50 to 200 nM	Cc1cc(N[C@H]2CC[C@@H](NC(=O)c3c(F)cccc3F)CC2)nc2ccccc12 [Example 3165, 2,6-Difluoro-N-[cis-4-(4-methylquinolin-2-ylamino)-cyclohexyl]-benzamide hydrochloride]
< 50 nM	Cc1cc(N[C@H]2CC[C@@H](NC(=O)c3cc(F)cc(F)c3)CC2)nc2ccccc12 [Example 3166, 3,5-Difluoro-N-[cis-4-(4-methylquinolin-2-ylamino)-cyclohexyl]-benzamide hydrochloride]
< 50 nM	Cc1cc(N[C@H]2CC[C@@H](NC(=O)c3ccc(Cl)c(F)c3)CC2)nc2ccccc12 [Example 3168, 4-Chloro-3-fluoro-N-[cis-4-(4-methyl-quinolin-2-ylamino)-cyclohexyl]-benzamide hydrochloride]
< 50 nM	Cc1cc(N[C@H]2CC[C@@H](NC(=O)c3ccc(F)cc3)CC2)nc2ccccc12 [Example 3169, 4-Fluoro-N-[cis-4-(4-methyl-quinolin-2-ylamino)-cyclohexyl]-benzamide hydrochloride]
< 50 nM	Cc1cc(N[C@H]2CC[C@@H](NC(=O)c3cccc(F)c3)CC2)nc2ccccc12 [Example 3170, 3-Fluoro-N-[cis-4-(4-methyl-quinolin-2-ylamino)-cyclohexyl]-benzamide hydrochloride]
50 to 200 nM	Cc1cc(N[C@H]2CC[C@@H](NC(=O)c3ccccc3F)CC2)nc2ccccc12 [Example 3171, 2-Fluoro-N-[cis-4-(4-methyl-quinolin-2-ylamino)-cyclohexyl]-benzamide hydrochloride]
< 50 nM	Cc1cc(N[C@H]2CC[C@@H](NC(=O)c3ccc(Cl)cc3)CC2)nc2ccccc12 [Example 3172, 4-Chloro-N-[cis-4-(4-methyl-quinolin-2-ylamino)-cyclohexyl]-benzamide hydrochloride]
> 200 nM	Cc1cc(N[C@H]2CC[C@@H](NC(=O)c3cccnc3O)CC2)nc2ccccc12 [Example 3173, 2-Hydroxy-N-[cis-4-(4-methyl-quinolin-2-ylamino)-cyclohexyl]-nicotinamide hydrochloride]
< 50 nM	COC(=O)c1cccc(C(=O)N[C@H]2CC[C@@H](Nc3cc(C)c4ccccc4n3)CC2)c1 [Example 3174, N-[cis-4-(4-Methylquinolin-2-ylamino)-cyclohexyl]-isophthalamic acid-methyl ester hydrochloride]
< 50 nM	Cc1cc(N[C@H]2CC[C@@H](NC(=O)c3ccc(Cl)nc3)CC2)nc2ccccc12 [Example 3175, 6-Chloro-N-[cis-4-(4-methyl-quinolin-2-ylamino)-cyclohexyl]-nicotinamide hydrochloride]
50 to 200 nM	Cc1cc(N[C@H]2CC[C@@H](NC(=O)c3ccc(N(C)C)nc3)CC2)nc2ccccc12 [Example 3176, 6-Dimethylamino-N-[cis-4-(4-methyl-quinolin-2-ylamino)-cyclohexyl]-nicotinamide dihydrochloride]
50 to 200 nM	Cc1cc(N[C@H]2CC[C@@H](NC(=O)c3cccc(CO)c3)CC2)nc2ccccc12 [Example 3177, 3-Hydroxymethyl-N-[cis-4-(4-methyl-quinolin-2-ylamino)-cyclohexyl]-benzamide hydrochloride]
50 to 200 nM	Cc1cc(N[C@H]2CC[C@@H](NC(=O)c3cccc(C(N)=O)c3)CC2)nc2ccccc12 [Example 3178, N-[cis-4-(4-Methylquinolin-2-ylamino)-cyclohexyl]-isophthalamide hydrochloride]

IC50	SMILES
< 50 nM	Cc1cc(N[C@H]2CC[C@@H](NC(=O)c3cc(F)cc(Cl)c3)CC2)nc2ccccc12 [Example 3179, 3-Chloro-5-fluoro-N-[cis-4-(4-methyl-quinolin-2-ylamino)-cyclohexyl]-benzamide hydrochloride]
< 50 nM	Cc1cc(N[C@H]2CC[C@@H](NC(=O)c3cc(F)c(F)c(F)c3)CC2)nc2ccccc12 [Example 3180, 3,4,5-Trifluoro-N-[cis-4-(4-methyl-quinolin-2-ylamino)-cyclohexyl]-benzamide hydrochloride]
50 to 200 nM	Cc1cc(N[C@H]2CC[C@@H](NC(=O)c3ccccn3)CC2)nc2ccccc12 [Example 3181, Pyridine-2-carboxylic acid [cis-4-(4-methyl-quinolin-2-ylamino)-cyclohexyl]-amide hydrochloride]
> 200 nM	Cc1cc(N[C@H]2CC[C@@H](NC(=O)c3cccnc3)CC2)nc2ccccc12 [Example 3182, N-[cis-4-(4-Methyl-quinolin-2-ylamino)-cyclohexyl]-nicotinamide hydrochloride]
> 200 nM	Cc1cc(N[C@H]2CC[C@@H](NC(=O)c3ccncc3)CC2)nc2ccccc12 [Example 3183, N-[cis-4-(4-Methyl-quinolin-2-ylamino)-cyclohexyl]-isonicotinamide hydrochloride]
50 to 200 nM	Cc1cc(N[C@H]2CC[C@@H](NC(=O)c3cc(Cl)ccn3)CC2)nc2ccccc12 [Example 3184, 4-Chloro-pyridine-2-carboxylic acid [cis-4-(4-methyl-quinolin-2-ylamino)-cyclohexyl]-amide hydrochloride]
< 50 nM	Cc1cc(N[C@H]2CC[C@@H](NC(=O)c3cncc(Br)c3)CC2)nc2ccccc12 [Example 3185, 5-Bromo-N-[cis-4-(4-methyl-quinolin-2-ylamino)-cyclohexyl]-nicotinamide dihydrochloride]
50 to 200 nM	Cc1cc(N[C@H]2CC[C@@H](NC(=O)c3ccc(C(F)(F)F)nc3)CC2)nc2ccccc12 [Example 3186, N-[cis-4-(4-Methyl-quinolin-2-ylamino)-cyclohexyl]-6-trifluoromethyl-nicotinamide hydrochloride]
> 200 nM	Cc1cc(N[C@H]2CC[C@@H](NC(=O)c3ccc(-n4ccnc4)nc3)CC2)nc2ccccc12 [Example 3187, 6-Imidazol-1-yl-N-[cis-4-(4-methyl-quinolin-2-ylamino)-cyclohexyl]-nicotinamide dihydrochloride]
< 50 nM	CN(C)c1cc(N[C@H]2CC[C@@H](NC(=O)c3ccc(F)c(F)c3)CC2)nc2ccccc12 [Example 3188, N-[cis-4-(4-Dimethylamino-quinolin-2-ylamino)-cyclohexyl]-3,4-difluoro-benzamide hydrochloride]
< 50 nM	CN(C)c1cc(N[C@H]2CC[C@@H](NC(=O)c3csc([N+](=O)[O-])c3)CC2)nc2ccccc12 [Example 3189, 5-Nitro-thiophene-3-carboxylic acid [cis-4-(4-dimethylamino-quinolin-2-ylamino)-cyclohexyl]-amide hydrochloride]
50 to 200 nM	CN(C)c1cc(N[C@H]2CC[C@@H](CNC(=O)c3ccc(F)c(F)c3)CC2)nc2ccccc12 [Example 3190, N-[cis-4-(4-Dimethylamino-quinolin-2-ylamino)-cyclohexylmethyl]-3,4-difluoro-benzamide hydrochloride]
50 to 200 nM	CN(C)c1cc(N[C@H]2CC[C@@H](CNC(=O)Nc3cccc(Cl)c3Cl)CC2)nc2ccccc12 [Example 3191, 1-(2,3-Dichloro-phenyl)-3-[cis-4-(4-dimethylamino-quinolin-2-ylamino)-cyclohexylmethyl]-urea hydrochloride]
< 50 nM	CN(C)c1nc(N[C@H]2CC[C@@H](NC(=O)c3ccc(F)c(F)c3)CC2)nc2c1CCCC2 [Example 3192, N-[cis-4-(4-dimethylamino-5,6,7,8-tetrahydro-quinazolin-2-ylamino)-cyclohexyl]-3,4-difluoro-benzamide hydrochloride]
< 50 nM	CN(C)c1nc(N[C@H]2CC[C@@H](NC(=O)c3csc([N+](=O)[O-])c3)CC2)nc2c1CCCC2 [Example 3193, 5-Nitro-thiophene-3-carboxylic acid [cis-4-(4-dimethylamino-5,6,7,8-tetrahydro-quinazolin-2-ylamino)-cyclohexyl]-amide hydrochloride]
< 50 nM	CN(C)c1nc(N[C@H]2CC[C@@H](NC(=O)c3cc([N+](=O)[O-])cn3C)CC2)nc2c1CCCC2 [Example 3194, 1-Methyl-4-nitro-1H-pyrrole-2-carboxylic acid [cis-4-(4-dimethylamino-5,6,7,8-tetrahydro-quinazolin-2-ylamino)-cyclohexyl]-amide hydrochloride]
50 to 200 nM	CN(C)c1nc(N[C@H]2CC[C@@H](CNC(=O)c3ccc(F)c(F)c3)CC2)nc2c1CCCC2 [Example 3195, N-[cis-4-(4-Dimethylamino-5,6,7,8-tetrahydro-quinazolin-2-ylamino)-cyclohexylmethyl]-3,4-difluoro-benzamide hydrochloride]

From patent US20050197350A1, “Novel quinoline, tetrahydroquinazoline, and pyrimidine derivatives and methods of treatment related to the use thereof” (TAISHO PHARMACEUTICAL CO., LTD., priority 2003, published 2005)
